Tests used:
[1] = system: Japanese medaka (Oryzias latipes); assay: Fish Short‐Term Reproduction Assay; type: in vivo; details: for GSI Female / GSI Male / HSI Male / Length Female / Length Male / Weight Female / Weight Male: completion of exposure
medaka Esr1 (mEsr1) [2] = target: T1, medaka Esr1 (mEsr1) (Oryzias latipes, UniProt P50241); assay: cell-based; set-up: species or system Japanese medaka (Oryzias latipes); details: MAC = 1.0 × 10^−4 M
T1 sequence (P50241 1-620): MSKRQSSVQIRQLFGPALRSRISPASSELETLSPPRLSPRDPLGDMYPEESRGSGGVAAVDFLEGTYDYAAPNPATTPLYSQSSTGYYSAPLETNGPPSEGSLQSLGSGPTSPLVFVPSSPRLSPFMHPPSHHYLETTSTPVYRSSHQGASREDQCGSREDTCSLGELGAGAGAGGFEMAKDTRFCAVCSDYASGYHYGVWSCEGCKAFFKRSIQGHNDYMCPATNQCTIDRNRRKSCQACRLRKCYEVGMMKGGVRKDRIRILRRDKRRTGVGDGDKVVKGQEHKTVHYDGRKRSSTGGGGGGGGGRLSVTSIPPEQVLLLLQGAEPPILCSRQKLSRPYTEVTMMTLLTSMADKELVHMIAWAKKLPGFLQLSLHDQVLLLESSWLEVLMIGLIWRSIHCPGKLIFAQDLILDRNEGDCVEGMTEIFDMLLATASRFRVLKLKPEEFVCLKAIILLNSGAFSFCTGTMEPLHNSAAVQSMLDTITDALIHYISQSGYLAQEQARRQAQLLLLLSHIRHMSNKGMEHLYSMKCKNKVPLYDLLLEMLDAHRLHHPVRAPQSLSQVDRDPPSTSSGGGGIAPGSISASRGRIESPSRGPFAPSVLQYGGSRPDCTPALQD

medaka ARβ (mArβ) [3] = target: T2, medaka ARβ (mArβ) (Oryzias latipes, UniProt D1MV73); assay: Medaka ARβ reporter gene assay, agonist assay; type: cell-based, Japanese medaka (Oryzias latipes); details: MAC = 1.0 × 10^−4 M
T2 sequence (D1MV73 1-744): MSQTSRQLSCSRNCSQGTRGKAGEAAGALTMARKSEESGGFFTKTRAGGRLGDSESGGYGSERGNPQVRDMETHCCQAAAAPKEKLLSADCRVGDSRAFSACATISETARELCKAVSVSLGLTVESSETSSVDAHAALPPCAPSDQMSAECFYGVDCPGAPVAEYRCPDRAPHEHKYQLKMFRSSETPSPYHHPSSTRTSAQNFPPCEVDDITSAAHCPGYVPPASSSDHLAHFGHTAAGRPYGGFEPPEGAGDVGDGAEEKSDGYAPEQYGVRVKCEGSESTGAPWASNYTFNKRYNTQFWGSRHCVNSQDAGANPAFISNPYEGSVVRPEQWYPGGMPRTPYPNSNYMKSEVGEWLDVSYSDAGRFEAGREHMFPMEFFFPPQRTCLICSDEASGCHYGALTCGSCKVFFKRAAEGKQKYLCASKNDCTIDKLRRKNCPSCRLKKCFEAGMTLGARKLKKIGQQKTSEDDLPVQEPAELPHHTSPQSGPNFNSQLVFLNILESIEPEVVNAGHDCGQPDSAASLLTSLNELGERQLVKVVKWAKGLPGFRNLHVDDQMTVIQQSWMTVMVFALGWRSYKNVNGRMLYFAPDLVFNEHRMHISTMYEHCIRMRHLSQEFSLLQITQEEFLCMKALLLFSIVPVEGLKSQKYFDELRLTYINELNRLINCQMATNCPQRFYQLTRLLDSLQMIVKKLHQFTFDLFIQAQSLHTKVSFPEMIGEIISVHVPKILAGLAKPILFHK

medaka ARβ (mArβ) [4] = target: T2, medaka ARβ (mArβ); assay: Medaka ARβ reporter gene assay, antagonist assay; type: cell-based, Japanese medaka (Oryzias latipes); details: 11‐KT spiked at 50 nM (D); MAC = 3.2 × 10^−5 M
medaka Esr1 (mEsr1) [5] = target: T1, medaka Esr1 (mEsr1); assay: Medaka Esr1 reporter gene assay, antagonist assay; type: cell-based, Japanese medaka (Oryzias latipes)
[6] = 18.5 mg/L measured, 21 d, sig. ↑ vs control
[7] = measured concentration 2.25 mg/L
[8] = measured concentration 4.76 mg/L
[9] = measured concentration 8.72 mg/L
[10] = measured concentration 18.5 mg/L

O=C1NC(=O)C(c2ccccc2)(c2ccccc2)N1 [PHT, Phenitoin, reference compound]
Fertility rate ([1]; 2.25 mg/L measured, 21 d): 92 ± 2.8% | Hepatic VTG, female ([1]; 2.25 mg/L measured, 21 d): 685 ± 110 ng/mg‐liver | Hepatic VTG, male ([1]; 2.25 mg/L measured, 21 d): 1.4 ± 0.5 ng/mg‐liver | Mortality ([1]; 2.25 mg/L measured, 21 d): 0.0% | Mortality, number of dead fish ([1]; 2.25 mg/L measured, 21 d): 0 | Number of fertilized eggs (per female per day) ([1]; 2.25 mg/L measured, 21 d): 18 ± 4.3 | Number of total eggs (per female per day) ([1]; 2.25 mg/L measured, 21 d): 20 ± 5.0 | SSC female (joint plates with papillary processes) ([1]; 2.25 mg/L measured, 21 d): 0 ± 0 | SSC male (joint plates with papillary processes) ([1]; 2.25 mg/L measured, 21 d): 95 ± 14 | Abnormal behavior (in words) ([1]; 4.76 mg/L and above): fish frequently showed abnormal behavior such as loss of balance | Fertility rate ([1]; 4.76 mg/L measured, 21 d): 86 ± 9.3% | Hepatic VTG, female ([1]; 4.76 mg/L measured, 21 d): 1,013 ± 183 ng/mg‐liver | Hepatic VTG, male ([1]; 4.76 mg/L measured, 21 d): 4.2 ± 6.7 ng/mg‐liver | Mortality ([1]; 4.76 mg/L measured, 21 d): 0.0% | Mortality, number of dead fish ([1]; 4.76 mg/L measured, 21 d): 0 | Number of fertilized eggs (per female per day) ([1]; 4.76 mg/L measured, 21 d): 17 ± 3.2 | Number of total eggs (per female per day) ([1]; 4.76 mg/L measured, 21 d): 20 ± 2.0 | SSC female (joint plates with papillary processes) ([1]; 4.76 mg/L measured, 21 d): 0 ± 0 | Hepatic VTG, female ([1]; 8.72 mg/L measured, 21 d): 661 ± 199 ng/mg‐liver | Hepatic VTG, male ([1]; 8.72 mg/L measured, 21 d): 1.0 ± 0.4 ng/mg‐liver | Mortality ([1]; 8.72 mg/L measured, 21 d): 4.2% | Mortality, number of dead fish ([1]; 8.72 mg/L measured, 21 d): 1 | SSC female (joint plates with papillary processes) ([1]; 8.72 mg/L measured, 21 d): 0 ± 0 | SSC male (joint plates with papillary processes) ([1]; 8.72 mg/L measured, 21 d): 99 ± 21 | Fertility rate ([1]; 8.72 mg/L measured, 21 d, sig. ↓ vs control): 49 ± 12% | Hepatic VTG, female ([1]; 18.5 mg/L measured, 21 d): 693 ± 243 ng/mg‐liver | Hepatic VTG, male ([1]; 18.5 mg/L measured, 21 d): 1.4 ± 0.9 ng/mg‐liver | SSC female (joint plates with papillary processes) ([1]; 18.5 mg/L measured, 21 d): 0 ± 0 | SSC male (joint plates with papillary processes) ([1]; 18.5 mg/L measured, 21 d): 85 ± 15 | Mortality [1, 6]: 33% | Mortality, number of dead fish [1, 6]: 8 | Fertility rate ([1]; 18.5 mg/L measured, 21 d, sig. ↓ vs control): 18 ± 4.1% | Change of hepatic VTG levels in females (in words) ([1]; 21 d): did not reduce | Fecundity, number of total eggs (in words) ([1]; 21 d): statistically significant decrease | LOECmVTG ([1]; LOEC on VTG induction in males): ND (>18,500) μg/L | LOECREPRO ([1]; LOEC on reproduction (fecundity and/or fertility)): 8,720 μg/L | LOECTOX ([1]; lowest observed effect concentration on mortality): 4,760 μg/L | GSI Female [1, 7]: 8.3 ± 0.8% | GSI Male [1, 7]: 1.32 ± 0.77% | HSI Male [1, 7]: 1.4 ± 0.36% | Length Female [1, 7]: 35.9 ± 0.4 mm | Length Male [1, 7]: 35.9 ± 0.6 mm | Weight Female [1, 7]: 466 ± 26 mg | Weight Male [1, 7]: 435 ± 26 mg | GSI Female [1, 8]: 9.0 ± 1.4% | GSI Male [1, 8]: 1.00 ± 0.26% | HSI Male [1, 8]: 1.6 ± 0.35% | Length Female [1, 8]: 35.5 ± 1.0 mm | Length Male [1, 8]: 36.5 ± 1.5 mm | Weight Female [1, 8]: 463 ± 10 mg | Weight Male [1, 8]: 435 ± 63 mg | GSI Female [1, 9]: 19.3 ± 10% | GSI Male [1, 9]: 1.04 ± 0.31% | HSI Male [1, 9]: 2.2 ± 0.30% | Length Female [1, 9]: 36.0 ± 0.5 mm | Length Male [1, 9]: 36.5 ± 0.1 mm | Weight Female [1, 9]: 576 ± 28 mg | Weight Male [1, 9]: 415 ± 31 mg | GSI Female [1, 10]: 17.0 ± 9.7% | GSI Male [1, 10]: 0.44 ± 0.26% | HSI Male [1, 10]: 3.4 ± 0.47% | Length Female [1, 10]: 37.5 ± 1.4 mm | Length Male [1, 10]: 38.4 ± 1.4 mm | Weight Female [1, 10]: 609 ± 67 mg | Weight Male [1, 10]: 507 ± 83 mg | Agonistic activity (medaka Esr1 (mEsr1) [2]): NE (MAC = 1.0 × 10^−4 M) | Agonistic activity (medaka ARβ (mArβ) [3]): NE (MAC = 1.0 × 10^−4 M) | Antagonistic activity (medaka ARβ (mArβ) [4]): NE (MAC = 3.2 × 10^−5 M)^(D) | Antagonistic activity on mEsr1 (in words) (medaka Esr1 (mEsr1) [5]; antagonist assays): inhibited the transcriptional activity on mEsr1 by E2 | In vitro positive: aEsr (medaka Esr1 (mEsr1) [5]; mode of action in which IC50 or IC30 was obtained in RGA): aEsr | IC50 (medaka Esr1 (mEsr1) [5]; read-out: Antagonistic activity IC50, E2 spiked at 0.2 nM (A)): 2100 nM
